US20250205268A1, “TREATMENT OF VIRUSES WITH ANTIVIRAL NUCLEOSIDES” (priority 2021, published 2025)
“Also recorded” adds a separate entry of the source. Read-outs that look alike come from different tables or passages of the source.

Tests used:
SARS-CoV-2 RNA = assay: Phase 2a trial: RT-PCR for SARS-CoV-2 RNA in nasopharyngeal swabs (Example 2); type: in vivo; details: 800 mg
SARS-CoV-2 [1] = type: in vivo
[2] = type: in vivo; details: nonclinical studies
SARS-CoV-2 [3] = type: in vivo; details: for WHO Clinical Progression Scale, participants in score category 0 / WHO Clinical Progression Scale, participants in score category 1-3 / WHO Clinical Progression Scale, participants in score category 4-5 / WHO Clinical Progression Scale, participants in score category 6-9 / WHO Clinical Progression Scale, participants in score category 10: final MITT; for WHO Clinical Progression Scale, odds ratio (95% CI): proportional odds model
[4] = Part 2 interim analysis, MITT, 800 mg twice daily 5 days
[5] = Part 2 interim analysis, versus placebo
[6] = Part 2 interim, post-hoc sensitivity analysis, MITT

## CC(C)C(=O)OC[C@H]1O[C@@H](n2ccc(NO)nc2=O)[C@H](O)[C@@H]1O [Compound A, {(2R,3S,4R,5R)-3,4-dihydroxy-5-[4-(hydroxyimino)-2-oxo-3,4-dihydropyrimidin-1 (2H)-yl]oxolan-2-yl}methyl 2-methylpropanoate]
SARS-CoV-2 RNA; Day 5
  Difference in least squares mean viral load change vs placebo: −0.547 log10 copies/ml
SARS-CoV-2 RNA; Day 7
  Change from baseline in SARS-CoV-2 viral load, least squares mean: −2.485 log10 copies/ml
  Difference in least squares mean viral load change vs placebo: −0.534 log10 copies/ml
SARS-CoV-2 RNA; Day 14
  Change from baseline in SARS-CoV-2 viral load, least squares mean: −3.040 log10 copies/ml
  Difference in least squares mean viral load change vs placebo: −0.175 log10 copies/ml
SARS-CoV-2 RNA; participants seronegative at baseline (sensitivity analysis)
  Median time to clearance of viral RNA: 14 days
SARS-CoV-2 [1]; Part 2 interim analysis
  deaths through Day 29: No participants in the Compound A group died; also recorded: No deaths were reported
  relative reduction in the percentage of participants hospitalized or died through Day 29: ~50%
SARS-CoV-2 [1]; Part 2 interim analysis (28 of 385 vs 53 of 377), MITT
  treatment difference (Compound A minus placebo) in hospitalization or death at day 29: −6.8 percentage points
SARS-CoV-2 [1]; Part 2 interim analysis, MITT
  hazard ratio for hospitalization/death through Day 29: 0.51
  reduction in the risk of hospitalization/death through Day 29 (time-to-event analysis): ~50%
SARS-CoV-2 [1]; [4]
  participants hospitalized or died through Day 29: 7.3%
  reduction in the risk of hospitalization or death through Day 29 compared with placebo: 6.8 percentage point
SARS-CoV-2 [1]; Part 2 interim analysis, subgroup positive for SARS-CoV-2 antibodies at baseline
  participants hospitalized or died through Day 29: 2.9%
SARS-CoV-2 [1]; [5]
  progression of COVID-19 signs/symptoms: lower percentage of participants in the Compound A than the placebo group reported progression
  sustained improvement/resolution of self-reported COVID-19 signs/symptoms: higher percentage of participants in the Compound A group achieved earlier sustained improvement/resolution
SARS-CoV-2 [1]; [6]
  COVID-19-related hospitalizations and/or deaths through Day 29, n (%): 25 (6.5) n (%)
  Unadjusted difference vs placebo in COVID-19-related hospitalizations and/or deaths: −6.8
SARS-CoV-2 [1]; Part 2 interim, post-hoc sensitivity analysis, MITT, Miettinen & Nurminen
  Adjusted difference in rates % (95% CI) vs placebo in COVID-19-related hospitalizations and/or deaths: −6.8 (−11.1, −2.6) %
SARS-CoV-2 [1]; final
  Covid-19 signs and symptoms versus placebo: sustained abatement or resolution was more likely
  deaths reported through day 29: One
SARS-CoV-2 [1]; final all-randomized MITT
  29-day all-cause mortality: 0.1%
  difference vs placebo in hospitalization or death through day 29: −3.0 percentage points
  hazard ratio for hospitalization or death through day 29: 0.69
  rate of hospitalization or death through day 29 lower than placebo (time-to-event analysis): approximately 31%
SARS-CoV-2 [1]; final all-randomized MITT (48 of 709), 800 mg twice daily 5 days
  participants hospitalized or died through day 29: 6.8%
SARS-CoV-2 [1]; final, post hoc analysis
  risk of hospitalization or death through day 29 lower than placebo, adjusted for participant sex: 2.8 percentage points
SARS-CoV-2 [1]; final, prespecified supporting analysis
  difference vs placebo in Covid-19-related hospitalizations or deaths: −2.8 percentage points
SARS-CoV-2 [1]; final, prespecified supporting analysis (45 of 709)
  participants with Covid-19-related hospitalizations or deaths: 6.3%
SARS-CoV-2 [1]; final, through day 29
  risk of death lower than with placebo: 89%
[2]
  pancreatic toxicity (pathology changes in the pancreas): No test-article related pathology changes in the pancreas
SARS-CoV-2 [3]; Baseline
  WHO Clinical Progression Scale, participants in score category 0: (0.0) %
  WHO Clinical Progression Scale, participants in score category 1-3: (100.0) %
  WHO Clinical Progression Scale, participants in score category 4-5: (0.0) %
  WHO Clinical Progression Scale, participants in score category 6-9: (0.0) %
  WHO Clinical Progression Scale, participants in score category 10: (0.0) %
SARS-CoV-2 [3]; Day 3
  WHO Clinical Progression Scale, participants in score category 0: (0.3) %
  WHO Clinical Progression Scale, participants in score category 1-3: (97.7) %
  WHO Clinical Progression Scale, participants in score category 4-5: (1.6) %
  WHO Clinical Progression Scale, participants in score category 6-9: (0.4) %
  WHO Clinical Progression Scale, participants in score category 10: (0.0) %
  WHO Clinical Progression Scale, odds ratio (95% CI): 1.19 (0.62, 2.30)
SARS-CoV-2 [3]; Day 5
  WHO Clinical Progression Scale, participants in score category 0: (1.6) %
  WHO Clinical Progression Scale, participants in score category 1-3: (95.1) %
  WHO Clinical Progression Scale, participants in score category 4-5: (2.4) %
  WHO Clinical Progression Scale, participants in score category 6-9: (0.9) %
  WHO Clinical Progression Scale, participants in score category 10: (0.0) %
  WHO Clinical Progression Scale, odds ratio (95% CI): 1.52 (0.96, 2.39)
SARS-CoV-2 [3]; Day 10
  WHO Clinical Progression Scale, participants in score category 0: (5.9) %
  WHO Clinical Progression Scale, participants in score category 1-3: (89.0) %
  WHO Clinical Progression Scale, participants in score category 4-5: (4.0) %
  WHO Clinical Progression Scale, participants in score category 6-9: (1.0) %
  WHO Clinical Progression Scale, participants in score category 10: (0.0) %
  WHO Clinical Progression Scale, odds ratio (95% CI): 1.58 (1.14, 2.20)
SARS-CoV-2 [3]; Day 15
  WHO Clinical Progression Scale, participants in score category 0: (15.2) %
  WHO Clinical Progression Scale, participants in score category 1-3: (81.9) %
  WHO Clinical Progression Scale, participants in score category 4-5: (2.2) %
  WHO Clinical Progression Scale, participants in score category 6-9: (0.6) %
  WHO Clinical Progression Scale, participants in score category 10: (0.0) %
  WHO Clinical Progression Scale, odds ratio (95% CI): 1.36 (1.03, 1.78)
SARS-CoV-2 [3]; Day 29
  WHO Clinical Progression Scale, participants in score category 0: (48.4) %
  WHO Clinical Progression Scale, participants in score category 1-3: (50.2) %
  WHO Clinical Progression Scale, participants in score category 4-5: (0.9) %
  WHO Clinical Progression Scale, participants in score category 6-9: (0.3) %
  WHO Clinical Progression Scale, participants in score category 10: (0.2) %
  WHO Clinical Progression Scale, odds ratio (95% CI): 1.04 (0.84, 1.29)
